Results reported in ChEMBL document CHEMBL3425505, “Selected hybrid natural products as tubulin modulators” (Eur J Med Chem, 2015).
Converted amounts (≈) assume the structure as drawn.

Legend:
B16 = assay: Cytotoxicity against mouse B16 cells; type: functional, cell-based
A2780 = assay: Cytotoxicity against human A2780 cells; type: functional, cell-based
CCRF-CEM = assay: Growth inhibition of human CCRF-CEM cells; type: functional
SR = assay: Growth inhibition of human SR cells; type: functional
Homo sapiens [1] = species on record: Homo sapiens; assay: Toxicity in metastatic breast cancer patient assessed as neuropathy rate; type: organism-based; conditions: in vivo
Homo sapiens [2] = species on record: Homo sapiens; assay: Toxicity in metastatic breast cancer patient assessed as incidence of neuropathy; type: organism-based; conditions: in vivo
Homo sapiens [3] = species on record: Homo sapiens; assay: Toxicity in metastatic breast cancer patient assessed as incidence of peripheral neuropathy; type: organism-based; conditions: in vivo
MCF7 = assay: Cytotoxicity against human MCF7 cells; type: functional, cell-based
[4] = Cytotoxicity against human H460 cells; type: functional, cell-based; conditions: NCI-H460

Question: Which IC50 (B16) does the source give for `C=C1C[C@@H]2CC[C@@]34O[C@@H]5[C@@H]6O[C@](O)([C@H](O3)[C@@H]6O[C@H]3CC[C@H](CC(=O)O[C@@H]6[C@@H](C)[C@@H]7O[C@@H]8C[C@]9(C[C@@H]%10O[C@]%11(C[C@H](C)[C@@H]%12O[C@H](CC(=O)O)[C@H](O)C[C@@H]%12O%11)C[C@H](C)[C@@H]%10O9)O[C@@H]8C[C@@H]7O[C@H]6C[C@H]6O[C@@H](CC[C@@H]1O2)C[C@@H](C)C6=C)O[C@H]53)[C@H]4O` here?
Answer: 5 ng/mL (≈ 4.44 nM)

Question: Which EC50 (A2780) does the source give for `C/C(=C\c1csc(C)n1)[C@@H]1C[C@@H]2O[C@]2(C)CCC[C@@H]2CCC[C@@H](C(=O)C(C)(C)[C@@H](O)CC(=O)O1)[C@H]2O` here?
Answer: 8500 nM

Question: Which results are given for `CC1=C(c2ccc(C)cn2)CC2/C=C(/C)CCC[C@H](C)[C@H](O)[C@@H](C)C(=O)C(C)(C)[C@@H](O)CC(=O)O[C@H]12` (single isomer, unassigned)?
Answer: GI50 (CCRF-CEM): 2.7 nM; GI50 (SR): 2.9 nM

Question: For `C/C(=C\c1csc(C)n1)[C@@H]1C[C@@H]2O[C@]2(C)CCC[C@H](C)[C@H](O)[C@@H](C)C(=O)C(C)(C)[C@@H](O)CC(=O)N1` [IXABEPILONE], which Activity (Homo sapiens [1]) is on record?
Answer: 63%

Question: And the Activity (Homo sapiens [2])?
Answer: 48%

Question: What about the Activity (Homo sapiens [3]) of the same compound?
Answer: 44%

Question: Which EC50 (A2780) does the source give for `C/C(=C\c1csc(C)n1)[C@@H]1C[C@@H]2O[C@@H]2CCC[C@@H]2CCC[C@@H](C(=O)C(C)(C)[C@@H](O)CC(=O)O1)[C@H]2O` here?
Answer: 8500 nM

Question: For `CO[C@H]1/C=C(/C)CCC[C@H](C)[C@H](O)[C@@H](C)C(=O)C(C)(C)[C@@H](O)CC(=O)O[C@@H]1/C(C)=C/c1csc(C)n1`, which IC50 (MCF7) is on record?
Answer: 3.7 nM

Question: What about the IC50 [4] of the same compound?
Answer: 4.9 nM

Question: With `C=C1C[C@@H]2CC[C@@]34C[C@H]5O[C@H]6[C@@H](O3)[C@H]3O[C@H](CC[C@@H]3O[C@H]6[C@H]5O4)CC(=O)C[C@@H]3[C@@H](OC)[C@@H](C[C@H](O)CN)O[C@H]3C[C@H]3O[C@@H](CC[C@@H]1O2)C[C@@H](C)C3=C` [ERIBULIN] as the compound, how does the Activity (Homo sapiens [1]) read?
Answer: 35%

Question: And the Activity (Homo sapiens [2])?
Answer: 33.3%

Question: What about the Activity (Homo sapiens [3]) of the same compound?
Answer: 31.4%
